These results are taken from ChEMBL document CHEMBL1159158, “Cyclic urea HIV protease inhibitors containing alkynyl- and alkenyl-tethered heterocycles in the P2 region” (Bioorg Med Chem Lett, 1996).

Bounds are passed on as bounds.

The target in the first test is T1, Human immunodeficiency virus type 1 protease (Human immunodeficiency virus 1, UniProt Q72874). Description: Binding affinity to HIV-protease.
As usually defined, the Ki is the dissociation constant of the complex between target and ligand, obtained from inhibition or displacement. Higher therefore signals lower affinity. Turning to `O=C1N(CC#Cc2cccnc2)[C@H](Cc2ccccc2)[C@H](O)[C@@H](O)[C@@H](Cc2ccccc2)N1CC#Cc1cccnc1`, the Ki was at least 1000 nM.
With `COCCOCn1cc(C#CCN2C(=O)N(CC#Cc3cnn(COCCOC)c3)[C@H](Cc3ccccc3)[C@@H]3OC(C)(C)O[C@H]3[C@H]2Cc2ccccc2)cn1`, the Ki was at least 1000 nM.
Same read-out and setting: for `O=C1N(CC#CCN2CCCCC2)[C@H](Cc2ccccc2)[C@H](O)[C@@H](O)[C@@H](Cc2ccccc2)N1CC#CCN1CCCCC1` the value was at least 1000 nM; for `CC1(C)O[C@@H]2[C@@H](O1)[C@@H](Cc1ccccc1)N(CC#Cc1cn[nH]c1)C(=O)N(CC#Cc1cn[nH]c1)[C@@H]2Cc1ccccc1`, at least 1000 nM; for `O=C1N(CC#Cc2cnc3ccccc3c2)[C@H](Cc2ccccc2)[C@H](O)[C@@H](O)[C@@H](Cc2ccccc2)N1CC#Cc1cnc2ccccc2c1`, at least 1000 nM.
The compound `CC1(C)O[C@@H]2[C@@H](O1)[C@@H](Cc1ccccc1)N(CC#Cc1cccs1)C(=O)N(CC#Cc1cccs1)[C@@H]2Cc1ccccc1` showed a Ki of at least 1000 nM.
Consider `CC1(C)O[C@@H]2[C@@H](O1)[C@@H](Cc1ccccc1)N(CC#Cc1cccnc1)C(=O)N(CC#Cc1cccnc1)[C@@H]2Cc1ccccc1`, for which the Ki was at least 1000 nM.
Regarding `C#CCN1C(=O)N(CC#C)[C@H](Cc2ccccc2)[C@@H]2OC(C)(C)O[C@H]2[C@H]1Cc1ccccc1`, the Ki was 22 nM.
Still for that read-out and setting: for `CC(C)(C)OC(=O)n1cc(C#CCN2C(=O)N(CC#Cc3cnn(C(=O)OC(C)(C)C)c3)[C@H](Cc3ccccc3)[C@H](O)[C@@H](O)[C@H]2Cc2ccccc2)cn1` the value was at least 1000 nM.
Still for that read-out and setting: for `CC1(C)O[C@@H]2[C@@H](O1)[C@@H](Cc1ccccc1)N(CC#Cc1cncnc1)C(=O)N(CC#Cc1cncnc1)[C@@H]2Cc1ccccc1` the value was at least 1000 nM.
As for `CC(C)N(CC#CCN1C(=O)N(CC#CCN(C(C)C)C(C)C)[C@H](Cc2ccccc2)[C@H](O)[C@@H](O)[C@H]1Cc1ccccc1)C(C)C`, the Ki was at least 1000 nM.
The compound `CC1(C)O[C@@H]2[C@@H](O1)[C@@H](Cc1ccccc1)N(CC#Cc1cc3ccccc3cn1)C(=O)N(CC#Cc1cc3ccccc3cn1)[C@@H]2Cc1ccccc1` came in with a Ki of at least 1000 nM.
Consider `O=C1N(CC#Cc2ccsc2)[C@H](Cc2ccccc2)[C@H](O)[C@@H](O)[C@@H](Cc2ccccc2)N1CC#Cc1ccsc1`, for which the Ki is at least 1000 nM.
Compound `O=C1N(CC#Cc2cn[nH]c2)[C@H](Cc2ccccc2)[C@H](O)[C@@H](O)[C@@H](Cc2ccccc2)N1CC#Cc1cn[nH]c1` registered a Ki of at least 1000 nM.
For `CC1(C)O[C@@H]2[C@@H](O1)[C@@H](Cc1ccccc1)N(CC#Cc1ccsc1)C(=O)N(CC#Cc1ccsc1)[C@@H]2Cc1ccccc1`, the Ki was at least 1000 nM.
For `O=C1N(CC#Cc2cc3ccccc3cn2)[C@H](Cc2ccccc2)[C@H](O)[C@@H](O)[C@@H](Cc2ccccc2)N1CC#Cc1cc2ccccc2cn1`, the Ki is at least 1000 nM.
`O=C1N(CC#Cc2cncnc2)[C@H](Cc2ccccc2)[C@H](O)[C@@H](O)[C@@H](Cc2ccccc2)N1CC#Cc1cncnc1` registered a Ki of at least 1000 nM.
For `CC(C)(C)OC(=O)n1cc(C#CCN2C(=O)N(CC#Cc3cnn(C(=O)OC(C)(C)C)c3)[C@H](Cc3ccccc3)[C@@H]3OC(C)(C)O[C@H]3[C@H]2Cc2ccccc2)cn1`, the Ki is at least 1000 nM.
Turning to `O=C1N(CC#CCN2CCOCC2)[C@H](Cc2ccccc2)[C@H](O)[C@@H](O)[C@@H](Cc2ccccc2)N1CC#CCN1CCOCC1`, the Ki is at least 1000 nM.
In the case of `COCCOCn1cc(C#CCN2C(=O)N(CC#Cc3cnn(COCCOC)c3)[C@H](Cc3ccccc3)[C@H](O)[C@@H](O)[C@H]2Cc2ccccc2)cn1`, the inhibition constant Ki was at least 1000 nM.
`CC(C)(C)OC(=O)C1CCCN1CC#CCN1C(=O)N(CC#CCN2CCCC2C(=O)OC(C)(C)C)[C@H](Cc2ccccc2)[C@H](O)[C@@H](O)[C@H]1Cc1ccccc1` (stereo partly drawn) came in with a Ki of at least 1000 nM.
The compound `CCN(CC)CC#CCN1C(=O)N(CC#CCN(CC)CC)[C@H](Cc2ccccc2)[C@H](O)[C@@H](O)[C@H]1Cc1ccccc1` registered a Ki of at least 1000 nM.
For the compound `CC1(C)O[C@@H]2[C@@H](O1)[C@@H](Cc1ccccc1)N(CC#Cc1cnc3ccccc3c1)C(=O)N(CC#Cc1cnc3ccccc3c1)[C@@H]2Cc1ccccc1`, the inhibition constant (Ki) is at least 1000 nM.
The same measure, in the same setting: for `O=C1N(CC#Cc2cccs2)[C@H](Cc2ccccc2)[C@H](O)[C@@H](O)[C@@H](Cc2ccccc2)N1CC#Cc1cccs1` the value was at least 1000 nM.

The target in a further test is T1, Human immunodeficiency virus type 1 protease. Put plainly: Compound was evaluated for binding affinity towards HIV-Protease enzyme.
As to `O=C1N(C/C=C/c2cn[nH]c2)[C@H](Cc2ccccc2)[C@H](O)[C@@H](O)[C@@H](Cc2ccccc2)N1C/C=C/c1cn[nH]c1`, affinity was put at a Ki of 0.25 nM.
As for `O=C1N(C/C=C/c2cn[nH]c2)[C@H](Cc2ccccc2)[C@H](O)[C@@H](O)[C@@H](Cc2ccccc2)N1CC1CC1`, the Ki was found to be 0.41 nM.

A further test addresses Human immunodeficiency virus type 1 protease (Human immunodeficiency virus 1) (UniProt Q72874). Put plainly: Compound was evaluated for its antiviral activity against HIV-Protease in cell based assay.
What is called IC90 is the point of the concentration-response curve where the effect stands at 90%. Low readings indicate greater potency, high ones weaker potency. For the compound `O=C1N(C/C=C/c2cn[nH]c2)[C@H](Cc2ccccc2)[C@H](O)[C@@H](O)[C@@H](Cc2ccccc2)N1C/C=C/c1cn[nH]c1`, the IC90 turned out to be 370 nM.
The same measure, in the same setting: then `O=C1N(C/C=C/c2cn[nH]c2)[C@H](Cc2ccccc2)[C@H](O)[C@@H](O)[C@@H](Cc2ccccc2)N1CC1CC1`, with 820 nM.
